Literature values as cited in patent publication US6022558A, “Transdermal preparations of oxicams” (priority 1997, dated 2000).

Tests used:
[1] = single or multiple doses in patients
[2] = oral administration
[3] = rats and rabbits

In the case of `CN1C(C(=O)Nc2ccccn2)=C(O)c2ccccc2S1(=O)=O` [piroxicam, 4-hydroxyl-2-methyl-N-(2-pyridyl)-2H-1,2-benzo-thiazine-3-carboxamide-1,1-dioxide], the “Cmax and AUC dependence on dose” value [1] is given as “proportional to the dose administered”, the “Pharmacokinetic linearity” value [1] is given as “possessed a linear pharmacokinetic property” and the “Second plasma maximum” value [2] is given as “shows a second maximum plasma concentration due to hepatic and intestinal recycling”. The “Oral absorption” value [3] was “almost completely absorbed”.
